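Protocol summary: plate cells (96-well), add compound at 5 concentrations, incubate 48 h, interpolate endpoints linearly. GI50 marks 50% less growth. TGI marks complete inhibition of growth.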

The assay deals with MDA-MB-468 breast. The experiment in a line: inhibition of tumour cell growth, NCI panel, 48 h.
As for `ClCCn1cnc2c(SCc3ccccc3Cl)ncnc21`, the GI50 is 9760 nM and the TGI came to 67.6 µM.

Take `CC1(C)CC[C@]2(C(N)=O)CC[C@]3(C)C(=CC[C@@H]4[C@@]5(C)C/C(=C/c6cccnc6)C(=O)C(C)(C)[C@@H]5CC[C@]43C)[C@@H]2C1`: the GI50 was 3200 nM and the TGI is > 100 µM.

On to `CN(C)CCCn1c2c(c3ccc(-c4ccn[nH]4)cc3c1=O)C(=O)c1ccccc1-2`, for which the GI50 is 7840 nM and the TGI came out at 24 µM.

On to `OCc1ccc(N(Cc2ccc(F)cc2)CC2CC2)cc1Cl`, for which the GI50 is 18.9 nM and the TGI turned out to be 0.0686 µM.

Consider `C=C1C(=O)O[C@H]2[C@H]1CC/C(COC(=O)CCSSCCC(=O)OC/C1=C/CC[C@@]3(C)O[C@H]3[C@H]3OC(=O)C(=C)[C@@H]3CC1)=C\CC[C@@]1(C)O[C@@H]21`, for which the GI50 was 543 nM and the TGI amounted to 2.28 µM.

In the case of `N#Cc1c(Br)n(C2OC(CO)C(O)C2O)c2ncn3ccnc3c12` (stereo not drawn), the GI50 is 35200 nM and the TGI is > 100 µM.

Regarding `O=S(=O)(Nc1ccc(Cl)cc1)c1ccc(-c2cnc(C3CC3)o2)cc1`, the GI50 was 368 nM and the TGI was 6.01 µM.

For `C=C1C(=O)O[C@H]2[C@H]1CC/C(COC(=O)CCCC(=O)OC/C1=C/CC[C@@]3(C)O[C@H]3[C@H]3OC(=O)C(=C)[C@@H]3CC1)=C\CC[C@@]1(C)O[C@@H]21`, the GI50 is 1510 nM and the TGI amounted to 5.3 µM.

For `CN(C)CCCNCc1ccc(-c2ccc(F)c(Cl)c2)o1`, the GI50 is 8920 nM and the TGI is 23.4 µM.

`Oc1cccc(-c2nc(-c3n[nH]c(=S)n3-c3ccccc3)cc3c2[nH]c2ccccc23)c1`: the GI50 is 2540 nM and the TGI was found to be 7.41 µM.

As to `CC(=O)N1CCC(Nc2cc(C(=O)NC[C@H](O)CN3CCc4ccccc4C3)ncn2)CC1`, the GI50 is > 100000 nM and the TGI is > 100 µM.

With `COc1ccc2c(c1)NC(=O)CN2c1nc(NC2CC2)nc2ccccc12`, the TGI amounted to 3.75 µM.

Regarding `O=C(Nc1ccc(-c2nc(-c3cccc(O)c3)c(-c3ccnc(Br)c3)[nH]2)cc1)c1ccccc1`, the GI50 was 1910 nM and the TGI was 4.74 µM.

In the case of `Cc1cc(N(CCNc2ccnc3cc(Cl)ccc23)Cc2cccs2)nc(Cl)n1`, the GI50 was 1220 nM and the TGI was determined as 2.7 µM.

On to `Cc1cc(Oc2ccccc2)ccc1Nc1ncnc2ccc(-c3cnc(Cl)c(NS(C)(=O)=O)c3)cc12`, for which the GI50 was 1040 nM and the TGI was 3.33 µM.

For the compound `CCCN(CCC)c1ccc(CO)c(Cl)c1`, the GI50 is 46.9 nM and the TGI worked out at 0.199 µM.

Regarding `C[C@]12CCC(=O)CC1CC[C@@H]1C2CC[C@@]2(C)C1CC[C@@H]2OC(=O)CC[Se][Se]CCC(=O)O[C@H]1CCC2[C@@H]3CCC4CC(=O)CC[C@]4(C)C3CC[C@@]21C` (stereo partly drawn), the GI50 is 2100 nM and the TGI turned out to be 5.06 µM.

Regarding `N#Cc1c(-c2ccc(Cl)cc2)nc(SCc2ccccc2)nc1N1CCNCC1`, the GI50 is 1710 nM and the TGI was determined as 3.46 µM.

As to `CCOC(=O)c1nnn(-c2no[n+]([O-])c2-c2ccc(OC)cc2)c1COc1cccc2cccnc12`, the GI50 was 2610 nM and the TGI was determined as 7.99 µM.

For the compound `O=C1N[C@@H]2[C@@H](O)[C@@H](O)[C@H](O)C[C@H]2c2cc3c(c(O)c21)OCO3`, the GI50 was 58 nM and the TGI amounted to 0.298 µM.

In the case of `CC(C)C[C@H](NC(=O)Cn1ccc(Nc2ccccc2)cc1=O)B(O)O`, the GI50 is 423 nM and the TGI was 5.88 µM.

Consider `Cc1nn(CCO)c(C)c1N=[N+]([O-])c1c(C)nn(CCO)c1C`, for which the GI50 is 2840 nM and the TGI turned out to be 15.8 µM.

For `O=CN/N=C/c1ccc(Cl)c([N+](=O)[O-])c1`, the GI50 is 127 nM and the TGI was determined as 4.26 µM.

`C=C1C(=O)O[C@H]2[C@H]1CC/C(COC(=O)/C=C\C(=O)NCc1ccc(Cn3c(=O)sn(CCCI)c3=O)cc1)=C\CC[C@@]1(C)O[C@@H]21`: the GI50 was 519 nM and the TGI came to 1.19 µM.

`COc1cc(-c2csc(NC(=O)Nc3ccc(Cl)c(C(F)(F)F)c3)n2)cc(OC)c1OC`: the GI50 is 775 nM and the TGI is 3.85 µM.

In the case of `Cc1cc(Nc2ccc3c(c2)OCO3)c2cc3c(cc2n1)OCO3`, the GI50 is 519 nM and the TGI is 15 µM.

On to `O=C(Nc1cccc(Cl)c1)Nc1nccs1`, for which the GI50 is 8830 nM and the TGI is 89.5 µM.

Take `CCCCCCCC(=O)SCC/C=C/[C@@H]1CC(=O)NCc2cccc(n2)CN(Cc2ccc3ccccc3c2)CC(=O)N[C@@H](C(C)C)C(=O)O1`: the GI50 was 33300 nM and the TGI was > 100 µM.

On to `CCOC(=O)/C=C1/SC(N2CCCCC2)C(=O)N1CC` (stereo not drawn), for which the GI50 was > 100000 nM and the TGI was > 100 µM.

Regarding `O=C(CCCCN1CCOCC1)Nc1ccc(Cn2nnc3c2C(=O)c2nnn(Cc4ccc(NC(=O)CCCCN5CCOCC5)cc4)c2C3=O)cc1`, the GI50 was 103 nM and the TGI was 0.261 µM.

Consider `O=C(N/N=C/c1c(Cl)cccc1Cl)c1cccnc1Nc1cccc(C(F)(F)F)c1`, for which the GI50 was 951 nM and the TGI came out at 9.27 µM.

Take `Cc1ccc(Cl)cc1-c1nc(N)nc(Nc2ccc(Br)cc2)n1`: the GI50 is 175 nM and the TGI turned out to be 0.614 µM.

In the case of `CCCC(=O)NC(c1ccc(N(CC)CC)cc1)c1cc(C)c2cccnc2c1O` (stereo not drawn), the GI50 is 386 nM and the TGI worked out at 1.96 µM.

For the compound `C[n+]1c2ccccc2c(Nc2ccc(N3CCCCC3)cc2)c2[nH]c3ccccc3c21`, the GI50 is 153 nM and the TGI was 0.401 µM.

As for `N#CC1=C(N)Oc2c(ccc3ccccc23)C1c1cccs1` (stereo not drawn), the GI50 was 37.5 nM and the TGI was 13.7 µM.

`C=CC(=O)N1C[C@H](COc2nc(Nc3cnn(C)c3)nc3[nH]cc(Cl)c23)[C@@H](OC)C1`: the GI50 was 445 nM and the TGI came out at 2.59 µM.

Regarding `C[CH2][Pb]([CH2]C)([CH2]C)[O]C(=O)COc1ccccc1`, the GI50 was 230 nM and the TGI stood at 0.659 µM.

On to `O=C(Nc1ccc([As]=[As]c2ccc(NC(=O)c3ccccc3)cc2)cc1)c1ccccc1` (stereo not drawn), for which the GI50 is 152 nM and the TGI was 0.324 µM.

Consider `C(=C1c2ccccc2-c2ccccc21)c1ccncc1`, for which the GI50 was 2280 nM and the TGI was 6.64 µM.

In the case of `Cc1ccc(NC2=N[C@]34CC(=O)CC[C@]3(C)[C@H]3CC[C@]5(C)C(=O)CC[C@H]5[C@@H]3C[C@@H]4S2)c(C)c1`, the GI50 is 1930 nM and the TGI came out at 3.93 µM.

Consider `O=c1ccc2nc(C(F)(F)F)nn(-c3ccccc3)c-2c1`, for which the GI50 was 1060 nM and the TGI worked out at 2.98 µM.

`O=Cc1cn(Cc2ccc(Cl)cc2)c2ccccc12`: the GI50 was 22 nM and the TGI worked out at 0.0801 µM.

The record behind these values is PubChem BioAssay (NCI).
